Laboratory results: patent publication US6235284A, “Synthetic polypeptides belonging to the hepatitis C virus (HCV) and which can be used especially for detecting the latter” (Bio Merieux, priority 1992, dated 2001)

Test system: anti-HCV antibodies (HCV-positive sera)
Experiment: ELISA detection of anti-HCV antibodies in HCV-positive sera with adsorbed peptides
Assay type: binding, human
Protocol: The reactivity of these three peptides towards the sera of individuals infected with the hepatitis C virus, termed (HCV) positive, was evaluated in an ELISA test according to the procedure described below.
Detection of anti-HCV Antibodies by ELISA
The wells of a microtiter plate of "NUNC MAXISORB™" trademark are saturated with 100 μl of a solution containing the peptide or a mixture of peptides (10 μg/ml) for 2 hours at 37° C. The plate is then emptied, then washed with a wash buffer containing 0.05% TWEEN™ 20(polysorbate 20). The wells are saturated with 100 μl of wash buffer supplemented with 10% goat serum (v/v), then incubated for 30 minutes at 37° C., then washed again as above. The sera to be analyzed are diluted to the appropriate dilution with saturation buffer. The incubation of the sera is 1 hour at 37° C. The wells are again washed. The solution of conjugate (goat IgG to human IgG labelled with peroxidase) at a dilution of 1/1000 in the saturation buffer is then added and the incubation lasts for 90 minutes at 37° C. After washing, the solution of orthophenylenediamine substrate is added. After 10 minutes, the reaction is stopped with 50 μl of H2 SO4 and the optical density is read at 492 nm. It should be noted that all the tests were carried out in duplicate.
For that, the different peptides are adsorbed on the microplates at a concentration of 10 μg/ml and the sera are used at 1/100 dilution.
The values obtained, which are collated in Table 1 below, correspond to the optical density (OD) multiplied by 10^3, at 492 nm.
For each serum the experiment was carried out in duplicate. The **** are values outside the upper scale.
The different peptides are absorbed onto microplates at a concentration of 10 μg/ml and the sera are used at the dilution stated.
The values obtained, which are collated in Table 2 below, correspond to the optical density at 492 nm. All the experiments were carried out in duplicate.
Each serum was, in a first instance, tested at the dilution 1/100.
The values given correspond to the optical density read at 492 nm multiplied by the factor 10^3.

## P27Y: peptide corresponding to the amino acid sequence 7 to 35 of the CORE protein (PQRKTKRNTNRRPQDVKFPGGGQIVGGVY)
Table 4, serum A 8, 1/1000
  optical density at 492 nm: 1198 OD × 10^3
Table 4, serum A 8, 1/10,000
  optical density at 492 nm: 118 OD × 10^3
Table 4, serum A 9, 1/1000
  optical density at 492 nm: 1388 OD × 10^3
Table 4, serum A 9, 1/10,000
  optical density at 492 nm: 182 OD × 10^3
Table 4, serum A 10, 1/100
  optical density at 492 nm: 2308 OD × 10^3
Table 4, serum A 10, 1/1000
  optical density at 492 nm: 334 OD × 10^3
Table 4, serum A 10, 1/10,000
  optical density at 492 nm: 31 OD × 10^3
Table 4, serum A 11, 1/100
  optical density at 492 nm: 1937 OD × 10^3
Table 4, serum A 11, 1/1000
  optical density at 492 nm: 226 OD × 10^3
Table 4, serum A 11, 1/10,000
  optical density at 492 nm: 33 OD × 10^3
Table 4, serum A 12, 1/10,000
  optical density at 492 nm: 365 OD × 10^3
Table 4, serum P 1, 1/100
  optical density at 492 nm: 620 OD × 10^3
Table 4, serum P 2, 1/100
  optical density at 492 nm: 891 OD × 10^3
Table 4, serum P 3, 1/100
  optical density at 492 nm: 1470 OD × 10^3
Table 4, serum P 4, 1/1000
  optical density at 492 nm: 2111 OD × 10^3
Table 4, serum P 4, 1/10,000
  optical density at 492 nm: 324 OD × 10^3
Table 4, serum P 5, 1/10,000
  optical density at 492 nm: 856 OD × 10^3
Table 4, serum P 7, 1/10,000
  optical density at 492 nm: 1667 OD × 10^3
Table 4, serum P 8, 1/10,000
  optical density at 492 nm: 654 OD × 10^3
Table 4, serum P 10, 1/100
  optical density at 492 nm: 60 OD × 10^3
Table 4, serum P 14, 1/10,000
  optical density at 492 nm: 566 OD × 10^3
Table 4, serum P 16, 1/1000
  optical density at 492 nm: 913 OD × 10^3
Table 4, serum P 16, 1/10,000
  optical density at 492 nm: 104 OD × 10^3
Table 4, serum P 17, 1/100
  optical density at 492 nm: 2300 OD × 10^3
Table 4, serum P 23, 1/100
  optical density at 492 nm: 138 OD × 10^3
Table 4, serum P 24, 1/100
  optical density at 492 nm: 1063 OD × 10^3
Table 4, serum P 29, 1/100
  optical density at 492 nm: 347 OD × 10^3
Table 4, serum P 30, 1/100
  optical density at 492 nm: 2274 OD × 10^3

## P37G: peptide corresponding to the amino acid sequence 7 to 45 of the CORE protein (PQRKTKRNTNRRPQDVKFPGGGQIVGGVYLLPRRGPRLG)
Table 5, serum A8, 1/10,000
  optical density at 492 nm: 525 OD × 10^3
Table 5, serum A 9, 1/1000
  optical density at 492 nm: 2059 OD × 10^3
Table 5, serum A 9, 1/10,000
  optical density at 492 nm: 275 OD × 10^3
Table 5, serum A10, 1/10,000
  optical density at 492 nm: 1215 OD × 10^3
Table 5, serum A11, 1/10,000
  optical density at 492 nm: 321 OD × 10^3
Table 5, serum A12, 1/10,000
  optical density at 492 nm: 823 OD × 10^3
Table 5, serum A13, 1/10,000
  optical density at 492 nm: 1061 OD × 10^3
Table 5, serum A14, 1/1000
  optical density at 492 nm: 539 OD × 10^3
Table 5, serum A14, 1/10,000
  optical density at 492 nm: 65 OD × 10^3
Table 5, serum A15, 1/10,000
  optical density at 492 nm: 905 OD × 10^3
Table 5, serum A16, 1/10,000
  optical density at 492 nm: 2003 OD × 10^3
Table 5, serum A19, 1/10,000
  optical density at 492 nm: 446 OD × 10^3
Table 5, serum A20, 1/10,000
  optical density at 492 nm: 2338 OD × 10^3
Table 5, serum A21, 1/1000
  optical density at 492 nm: 652 OD × 10^3
Table 5, serum A21, 1/10,000
  optical density at 492 nm: 90 OD × 10^3
Table 5, serum A22, 1/1000
  optical density at 492 nm: 702 OD × 10^3
Table 5, serum A22, 1/10,000
  optical density at 492 nm: 102 OD × 10^3
Table 5, serum A23, 1/10,000
  optical density at 492 nm: 557 OD × 10^3
In words
  reactivity towards HCV-positive sera: little or no difference is observed in reactivity

## S32Y: peptide corresponding to the amino acid sequence 2 to 35 of the CORE protein (STNPKPQRKTKRNTNRRPQDVKFPGGGQIVGGVY)
Table 4, serum A 8, 1/1000
  optical density at 492 nm: 1372 OD × 10^3
Table 4, serum A 8, 1/10,000
  optical density at 492 nm: 173 OD × 10^3
Table 4, serum A 9, 1/1000
  optical density at 492 nm: 1941 OD × 10^3
Table 4, serum A 9, 1/10,000
  optical density at 492 nm: 297 OD × 10^3
Table 4, serum A 10, 1/1000
  optical density at 492 nm: 373 OD × 10^3
Table 4, serum A 10, 1/10,000
  optical density at 492 nm: 33 OD × 10^3
Table 4, serum A 11, 1/100
  optical density at 492 nm: 2240 OD × 10^3
Table 4, serum A 11, 1/1000
  optical density at 492 nm: 228 OD × 10^3
Table 4, serum A 11, 1/10,000
  optical density at 492 nm: 36 OD × 10^3
Table 4, serum A 12, 1/10,000
  optical density at 492 nm: 588 OD × 10^3
Table 4, serum P 1, 1/100
  optical density at 492 nm: 703 OD × 10^3
Table 4, serum P 2, 1/100
  optical density at 492 nm: 1177 OD × 10^3
Table 4, serum P 3, 1/100
  optical density at 492 nm: 1576 OD × 10^3
Table 4, serum P 4, 1/1000
  optical density at 492 nm: 2165 OD × 10^3
Table 4, serum P 4, 1/10,000
  optical density at 492 nm: 369 OD × 10^3
Table 4, serum P 5, 1/10,000
  optical density at 492 nm: 1242 OD × 10^3
Table 4, serum P 7, 1/10,000
  optical density at 492 nm: 1932 OD × 10^3
Table 4, serum P 8, 1/10,000
  optical density at 492 nm: 1068 OD × 10^3
Table 4, serum P 10, 1/100
  optical density at 492 nm: 78 OD × 10^3
Table 4, serum P 14, 1/10,000
  optical density at 492 nm: 601 OD × 10^3
Table 4, serum P 16, 1/1000
  optical density at 492 nm: 983 OD × 10^3
Table 4, serum P 16, 1/10,000
  optical density at 492 nm: 124 OD × 10^3
Table 4, serum P 23, 1/100
  optical density at 492 nm: 157 OD × 10^3
Table 4, serum P 24, 1/100
  optical density at 492 nm: 1214 OD × 10^3
Table 4, serum P 29, 1/100
  optical density at 492 nm: 400 OD × 10^3
